Several values for one entry are separate records, joined by “and”; a condition that tells them apart may be missing. Equal values may be shown once. Inconclusive results and toxic doses are left out.
Tested on: P388 leukemia ip, CD2F1 mice, survival T/C
Test: NCI In Vivo Anticancer Drug Screen. Data for tumor model P388 Leukemia (intraperitoneal) in CD2F1 (CDF1) mice
Conditions: endpoint: median survival time, higher = longer survival
In short: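 Mice carrying the transplanted tumor received test compound or vehicle. Survival was recorded in each group, and the value is the treated-group measurement divided by that of the vehicle-treated control group.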

[1] = dose: 50.0 mg/kg/injection, schedule: Q01DX009 (ip), vehicle: Klucel (hydroxypropylcellulose) (HPC)
[2] = dose: 100.0 mg/kg/injection, schedule: Q01DX009 (ip), vehicle: Klucel (hydroxypropylcellulose) (HPC)
[3] = dose: 200.0 mg/kg/injection, schedule: Q01DX009 (ip), vehicle: Klucel (hydroxypropylcellulose) (HPC)
[4] = dose: 50.0 mg/kg/injection, schedule: Q01DX005 (ip), vehicle: saline with Tween-80
[5] = dose: 100.0 mg/kg/injection, schedule: Q01DX001 (ip), vehicle: saline with Tween-80
[6] = dose: 100.0 mg/kg/injection, schedule: Q01DX005 (ip), vehicle: saline with Tween-80
[7] = dose: 200.0 mg/kg/injection, schedule: Q01DX001 (ip), vehicle: saline with Tween-80
[8] = dose: 60.0 mg/kg/injection, schedule: Q01DX005 (ip), vehicle: saline with Tween-80
[9] = dose: 120.0 mg/kg/injection, schedule: Q01DX005 (ip), vehicle: saline with Tween-80
[10] = dose: 240.0 mg/kg/injection, schedule: Q01DX005 (ip), vehicle: saline with Tween-80
[11] = dose: 50.0 mg/kg/injection, schedule: Q01DX005 (ip), vehicle: Klucel (hydroxypropylcellulose) (HPC)

CC1(C(=O)O)CCC2(C)CCC3(C)C(=CC(=O)C4C5(C)CCC(O)C(C)(C)C5CCC43C)C2C1 (centres undefined)
T/C (dose: 25.0 mg/kg/injection, schedule: Q01DX009 (ip), vehicle: Klucel (hydroxypropylcellulose) (HPC)): 95 % of control | T/C [1]: 100 % of control | T/C (dose: 50.0 mg/kg/injection, schedule: Q04DX003 (ip), vehicle: Klucel (hydroxypropylcellulose) (HPC)): 105 % of control | T/C [2]: 94 % of control | T/C (dose: 100.0 mg/kg/injection, schedule: Q04DX003 (ip), vehicle: Klucel (hydroxypropylcellulose) (HPC)): 100 % of control | T/C [3]: 94 % of control | T/C (dose: 200.0 mg/kg/injection, schedule: Q04DX003 (ip), vehicle: Klucel (hydroxypropylcellulose) (HPC)): 106 % of control

O=C(O)CCCC#C/C=C/CCCC/C=C(Br)\C=C/Br
T/C (dose: 62.5 mg/kg/injection, schedule: Q01DX009 (ip), vehicle: olive oil, sesame oil, peanut oil): 106 % of control | T/C (dose: 125.0 mg/kg/injection, schedule: Q01DX009 (ip), vehicle: olive oil, sesame oil, peanut oil): 96 % of control | T/C (dose: 250.0 mg/kg/injection, schedule: Q01DX009 (ip), vehicle: olive oil, sesame oil, peanut oil): 100 % of control

C=C1C(=O)O[C@@H]2C[C@@H](C)[C@@H]3C=CC(=O)[C@@]3(C)[C@@H](OC(=O)CCCC(=O)O[C@H]3[C@@H]4C(=C)C(=O)O[C@@H]4C[C@@H](C)[C@@H]4C=CC(=O)[C@]43C)[C@H]12
T/C (dose: 0.39 mg/kg/injection, schedule: Q01DX005 (ip), vehicle: Klucel (hydroxypropylcellulose) (HPC)): 101 % of control | T/C (dose: 0.78 mg/kg/injection, schedule: Q01DX005 (ip), vehicle: Klucel (hydroxypropylcellulose) (HPC)): 100 % of control | T/C (dose: 1.56 mg/kg/injection, schedule: Q01DX005 (ip), vehicle: Klucel (hydroxypropylcellulose) (HPC)): 103 % of control and 118 % of control | T/C (dose: 3.12 mg/kg/injection, schedule: Q01DX005 (ip), vehicle: Klucel (hydroxypropylcellulose) (HPC)): 116 % of control | T/C (dose: 6.25 mg/kg/injection, schedule: Q01DX005 (ip), vehicle: Klucel (hydroxypropylcellulose) (HPC)): 109 % of control

COc1ccc(O)cc1
T/C (dose: 12.5 mg/kg/injection, schedule: Q01DX005 (ip), vehicle: saline with Tween-80): 104 % of control | T/C (dose: 25.0 mg/kg/injection, schedule: Q01DX005 (ip), vehicle: saline with Tween-80): 99 % of control | T/C [4]: 99 % of control | T/C [5]: 101 % of control | T/C [6]: 99 % of control | T/C [7]: 102 % of control

COc1ccc2cc3c[n+](C)ccc3cc2c1OC
T/C (dose: 12.5 mg/kg/injection, schedule: Q01DX009 (ip), vehicle: water): 118 % of control | T/C (dose: 25.0 mg/kg/injection, schedule: Q01DX009 (ip), vehicle: water): 112 % of control

Cc1csc(N=Nc2ccc(N(C)C)cc2)[n+]1[O-]
T/C [1]: 103 % of control | T/C [2]: 109 % of control | T/C [3]: 108 % of control

CCOC(=O)CCC(CNC(=O)c1ccccc1)NC(=O)c1ccccc1 (centres undefined)
T/C [8]: 98 % of control | T/C [9]: 90 % of control | T/C [10]: 88 % of control

O=[N+]([O-])c1ccc(/C=C\S(=O)(=O)OCCCl)cc1
T/C [11]: 100 % of control

NC(=S)c1ccc(C=NCc2ccccc2)cc1
T/C (dose: 100.0 mg/kg/injection, schedule: Q04DX002 (ip), vehicle: Klucel (hydroxypropylcellulose) (HPC)): 100 % of control | T/C (dose: 200.0 mg/kg/injection, schedule: Q04DX002 (ip), vehicle: Klucel (hydroxypropylcellulose) (HPC)): 100 % of control | T/C (dose: 400.0 mg/kg/injection, schedule: Q04DX002 (ip), vehicle: Klucel (hydroxypropylcellulose) (HPC)): 100 % of control

CS(=O)(=O)C(Cl)(Cl)Cl
T/C [8]: 105 % of control | T/C [9]: 107 % of control | T/C [10]: 112 % of control

COC(=O)/C=c1/s/c(=C\C(C)=N)[nH]c1=O
T/C [8]: 90 % of control | T/C [9]: 89 % of control

Cc1ccc(N=Nc2c(-c3cccs3)nn(C(N)=S)c2C(F)(F)F)cc1
T/C (dose: 12.5 mg/kg/injection, schedule: Q01DX005 (ip), vehicle: Klucel (hydroxypropylcellulose) (HPC)): 103 % of control | T/C (dose: 25.0 mg/kg/injection, schedule: Q01DX005 (ip), vehicle: Klucel (hydroxypropylcellulose) (HPC)): 98 % of control | T/C [11]: 98 % of control

O=Cc1cccc[n+]1Cc1ccc2c(c1)OCO2
T/C (dose: 25.0 mg/kg/injection, schedule: Q01DX009 (ip), vehicle: distilled water + Tween-80): 100 % of control | T/C (dose: 50.0 mg/kg/injection, schedule: Q01DX009 (ip), vehicle: distilled water + Tween-80): 100 % of control

O=C1C=C(NCCc2cc3c(cc2Br)OCO3)CCC1
T/C (dose: 100.0 mg/kg/injection, schedule: Q04DX002 (ip), vehicle: saline with Tween-80): 97 % of control | T/C (dose: 200.0 mg/kg/injection, schedule: Q04DX002 (ip), vehicle: saline with Tween-80): 91 % of control | T/C (dose: 400.0 mg/kg/injection, schedule: Q04DX002 (ip), vehicle: saline with Tween-80): 95 % of control

N=C(N)c1ccc(Nc2ccc(-c3cc4ccc(C(=N)N)cc4[nH]3)cc2)cc1
T/C (dose: 1.87 mg/kg/injection, schedule: Q01DX005 (ip), vehicle: Klucel (hydroxypropylcellulose) (HPC)): 174 % of control | T/C (dose: 7.5 mg/kg/injection, schedule: Q01DX005 (ip), vehicle: Klucel (hydroxypropylcellulose) (HPC)): 166 % of control and 194 % of control

CC(=O)Nc1ccc(CC#N)cc1
T/C (dose: 5.0 mg/kg/injection, schedule: Q01DX009 (ip), vehicle: saline sonified): 100 % of control | T/C (dose: 10.0 mg/kg/injection, schedule: Q01DX009 (ip), vehicle: saline sonified): 100 % of control | T/C (dose: 20.0 mg/kg/injection, schedule: Q01DX009 (ip), vehicle: saline sonified): 113 % of control

CCCNC(C)(C)C(SSSC(c1ccc(C(F)(F)F)cc1)C(C)(C)NCCC)c1ccc(C(F)(F)F)cc1 (centres undefined)
T/C [5]: 100 % of control | T/C [7]: 104 % of control | T/C (dose: 400.0 mg/kg/injection, schedule: Q01DX001 (ip), vehicle: saline with Tween-80): 100 % of control

COc1ccc(-c2cc(C(=O)Nc3cc(C(F)(F)F)cc(C(F)(F)F)c3)c3ccccc3n2)cc1
T/C [4]: 91 % of control | T/C (dose: 100.0 mg/kg/injection, schedule: Q01DX005 (ip), vehicle: DMSO): 118 % of control | T/C [6]: 89 % of control | T/C (dose: 200.0 mg/kg/injection, schedule: Q01DX005 (ip), vehicle: DMSO): 118 % of control | T/C (dose: 200.0 mg/kg/injection, schedule: Q01DX005 (ip), vehicle: saline with Tween-80): 93 % of control | T/C (dose: 400.0 mg/kg/injection, schedule: Q01DX005 (ip), vehicle: DMSO): 96 % of control

CC(=O)OCC1OC([S-])C(OC(C)=O)C(OC(C)=O)C1OC(C)=O.CC[PH+](CC)CC.CC[PH+](CC)CC.[Au].[Au] (centres undefined)
T/C (dose: 5.0 mg/kg/injection, schedule: Q01DX009 (ip), vehicle: Klucel (hydroxypropylcellulose) (HPC)): 121 % of control | T/C (dose: 10.0 mg/kg/injection, schedule: Q01DX009 (ip), vehicle: Klucel (hydroxypropylcellulose) (HPC)): 163 % of control

CCOc1ccc2nc3cc(N=Nc4c(C)c(CN(CC)CC)cc(C)c4O)ccc3c(N)c2c1
T/C (dose: 50.0 mg/kg/injection, schedule: Q01DX009 (ip), vehicle: saline with Tween-80): 108 % of control | T/C (dose: 100.0 mg/kg/injection, schedule: Q01DX009 (ip), vehicle: saline with Tween-80): 100 % of control | T/C (dose: 200.0 mg/kg/injection, schedule: Q01DX009 (ip), vehicle: saline with Tween-80): 106 % of control

CCN(CC)CCCC(C)Nc1nncc2cc(Cl)ccc12 (centres undefined)
T/C (dose: 50.0 mg/kg/injection, schedule: Q01DX005 (ip), vehicle: saline): 95 % of control | T/C (dose: 100.0 mg/kg/injection, schedule: Q01DX005 (ip), vehicle: saline): 97 % of control

CCOC(OCC)N(C)C
T/C (dose: 60.0 mg/kg/injection, schedule: Q01DX005 (ip), vehicle: saline): 95 % of control | T/C (dose: 120.0 mg/kg/injection, schedule: Q01DX005 (ip), vehicle: saline): 100 % of control | T/C (dose: 240.0 mg/kg/injection, schedule: Q01DX005 (ip), vehicle: saline): 93 % of control

CC(=O)OC(CCCCCCCCCCCCC(C)C)CC(=O)O (centres undefined)
T/C (dose: 8.13 mg/kg/injection, schedule: Q01DX005 (ip), vehicle: Klucel + Tween-80): 102 % of control | T/C (dose: 16.25 mg/kg/injection, schedule: Q01DX005 (ip), vehicle: Klucel + Tween-80): 98 % of control | T/C (dose: 32.5 mg/kg/injection, schedule: Q01DX005 (ip), vehicle: Klucel + Tween-80): 90 % of control | T/C (dose: 65.0 mg/kg/injection, schedule: Q01DX005 (ip), vehicle: Klucel + Tween-80): 90 % of control

Reference: PubChem BioAssay AID330 (DTP/NCI, 2004)
